Measured values as given in ChEMBL document CHEMBL5465560, “Selectivity Literature for EUbOPEN Chemogenomic Library” (2024).

Experiments:
[1] = test system: Leucine-rich repeat serine/threonine-protein kinase 2 (Homo sapiens), Q5S007 [G2019S]; test: (§1) Selectivity interaction (KinomeScan (DiscoverX)) EUB0001079a LRRK2; settings: at 1 µM
[2] = target: Leucine-rich repeat serine/threonine-protein kinase 2 (Homo sapiens, UniProt Q5S007); test: as §1; settings: at 1 µM
[3] = target: T1, Mitogen-activated protein kinase 13 (Homo sapiens) (UniProt O15264); test: Selectivity interaction (KinomeScan (DiscoverX)) EUB0000666a MAPK13; settings: at 10 µM
T1 sequence (whole entry): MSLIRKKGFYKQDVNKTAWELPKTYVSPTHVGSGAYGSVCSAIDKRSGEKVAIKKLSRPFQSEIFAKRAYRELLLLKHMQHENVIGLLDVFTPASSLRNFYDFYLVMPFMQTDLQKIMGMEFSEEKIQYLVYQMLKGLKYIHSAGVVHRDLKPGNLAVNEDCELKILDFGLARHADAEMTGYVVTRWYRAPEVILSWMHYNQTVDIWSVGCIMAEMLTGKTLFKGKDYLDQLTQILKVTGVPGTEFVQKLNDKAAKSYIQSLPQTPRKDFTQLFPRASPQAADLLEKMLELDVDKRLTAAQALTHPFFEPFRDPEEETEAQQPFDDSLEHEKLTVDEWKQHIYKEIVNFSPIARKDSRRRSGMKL

[4] = target: Serine/threonine-protein kinase mTOR (Homo sapiens, UniProt P42345); test: Selectivity interaction (KinomeScan (DiscoverX)) EUB0000666a MTOR; settings: at 10 µM
[5] = target: Platelet-derived growth factor receptor alpha (Homo sapiens, UniProt P16234); test: Selectivity interaction (Millipore kinase profiler) EUB0000124b PDGFRA; settings: at 10 µM
[6] = target: T2, MAP kinase-activated protein kinase 5 (Homo sapiens) (UniProt Q8IW41); test: Selectivity interaction (KinomeScan (DiscoverX)) EUB0000607a MAPKAPK5; settings: at 10 µM
T2 sequence (whole entry): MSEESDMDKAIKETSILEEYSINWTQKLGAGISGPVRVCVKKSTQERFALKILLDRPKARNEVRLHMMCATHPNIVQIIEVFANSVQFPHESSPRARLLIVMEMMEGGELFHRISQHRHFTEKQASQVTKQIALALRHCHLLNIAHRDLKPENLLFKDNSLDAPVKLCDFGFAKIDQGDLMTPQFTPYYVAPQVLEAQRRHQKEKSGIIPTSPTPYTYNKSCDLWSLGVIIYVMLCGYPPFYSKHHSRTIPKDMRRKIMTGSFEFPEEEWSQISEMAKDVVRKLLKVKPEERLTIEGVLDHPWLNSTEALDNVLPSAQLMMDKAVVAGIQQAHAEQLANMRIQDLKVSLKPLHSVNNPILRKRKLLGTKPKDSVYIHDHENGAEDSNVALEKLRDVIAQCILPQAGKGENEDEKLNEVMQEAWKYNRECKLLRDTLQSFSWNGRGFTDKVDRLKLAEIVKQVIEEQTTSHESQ

[7] = target: Glutamate receptor ionotropic, NMDA 1 (Homo sapiens) (UniProt Q05586); test: Selectivity interaction (Panel of kinases, GPCRs, ion channels and transporters (enzymatic assay)) EUB0000266bCl GRIN1
[8] = target: T3, Tyrosine-protein kinase Tec (Homo sapiens) (UniProt P42680); test: Selectivity interaction (Kinase panel (Invitrogen)) EUB0000639a TEC; settings: at 200 nM
T3 sequence (whole entry): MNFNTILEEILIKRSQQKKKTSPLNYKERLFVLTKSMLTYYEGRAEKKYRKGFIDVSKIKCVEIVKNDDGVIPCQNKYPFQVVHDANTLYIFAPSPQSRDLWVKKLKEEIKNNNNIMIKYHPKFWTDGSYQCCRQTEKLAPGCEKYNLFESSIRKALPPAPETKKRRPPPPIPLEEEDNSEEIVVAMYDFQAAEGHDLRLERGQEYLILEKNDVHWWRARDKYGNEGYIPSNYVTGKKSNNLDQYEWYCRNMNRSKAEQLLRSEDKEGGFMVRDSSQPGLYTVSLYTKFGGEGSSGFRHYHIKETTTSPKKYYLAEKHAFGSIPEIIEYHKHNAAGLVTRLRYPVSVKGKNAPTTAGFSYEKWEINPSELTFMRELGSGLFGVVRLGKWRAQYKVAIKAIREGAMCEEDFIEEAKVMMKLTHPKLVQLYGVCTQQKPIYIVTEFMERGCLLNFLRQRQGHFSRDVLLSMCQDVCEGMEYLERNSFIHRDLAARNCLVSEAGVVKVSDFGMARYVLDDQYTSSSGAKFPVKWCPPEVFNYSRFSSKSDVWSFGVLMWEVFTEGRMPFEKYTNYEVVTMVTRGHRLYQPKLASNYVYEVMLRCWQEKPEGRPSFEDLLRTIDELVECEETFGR

[9] = target: T4, Bone morphogenetic protein receptor type-2 (Homo sapiens) (UniProt Q13873); test: Selectivity interaction (KinomeScan (DiscoverX)) EUB0000092b BMPR2; settings: at 10 µM
T4 sequence (whole entry): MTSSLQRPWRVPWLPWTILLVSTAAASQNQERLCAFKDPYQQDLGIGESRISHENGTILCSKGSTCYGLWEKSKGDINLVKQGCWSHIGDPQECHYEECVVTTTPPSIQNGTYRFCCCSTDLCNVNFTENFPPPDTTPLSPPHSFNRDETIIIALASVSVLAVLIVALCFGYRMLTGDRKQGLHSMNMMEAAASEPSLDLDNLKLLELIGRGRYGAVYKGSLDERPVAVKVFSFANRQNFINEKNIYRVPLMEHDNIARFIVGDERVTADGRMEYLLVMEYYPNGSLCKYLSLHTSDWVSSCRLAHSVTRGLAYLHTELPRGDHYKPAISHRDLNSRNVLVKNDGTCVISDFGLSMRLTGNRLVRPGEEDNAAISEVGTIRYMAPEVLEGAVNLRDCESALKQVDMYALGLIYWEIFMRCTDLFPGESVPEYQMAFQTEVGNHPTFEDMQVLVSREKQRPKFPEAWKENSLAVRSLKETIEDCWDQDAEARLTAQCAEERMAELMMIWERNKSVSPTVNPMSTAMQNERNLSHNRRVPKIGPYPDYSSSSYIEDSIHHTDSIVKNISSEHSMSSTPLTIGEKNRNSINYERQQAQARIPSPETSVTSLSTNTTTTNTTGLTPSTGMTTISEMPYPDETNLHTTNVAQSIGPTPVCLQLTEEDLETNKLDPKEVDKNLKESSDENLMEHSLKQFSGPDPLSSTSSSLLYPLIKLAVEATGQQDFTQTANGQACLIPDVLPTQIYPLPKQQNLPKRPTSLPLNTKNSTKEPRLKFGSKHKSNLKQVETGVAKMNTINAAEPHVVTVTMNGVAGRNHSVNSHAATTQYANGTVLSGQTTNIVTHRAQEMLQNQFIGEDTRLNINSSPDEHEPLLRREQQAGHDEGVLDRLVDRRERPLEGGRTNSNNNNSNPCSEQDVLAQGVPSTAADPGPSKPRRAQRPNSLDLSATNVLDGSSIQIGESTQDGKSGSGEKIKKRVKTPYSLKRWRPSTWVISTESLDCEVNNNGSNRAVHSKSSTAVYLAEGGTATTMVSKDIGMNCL

Chain of Platelet-derived growth factor receptor alpha (P16234 whole entry): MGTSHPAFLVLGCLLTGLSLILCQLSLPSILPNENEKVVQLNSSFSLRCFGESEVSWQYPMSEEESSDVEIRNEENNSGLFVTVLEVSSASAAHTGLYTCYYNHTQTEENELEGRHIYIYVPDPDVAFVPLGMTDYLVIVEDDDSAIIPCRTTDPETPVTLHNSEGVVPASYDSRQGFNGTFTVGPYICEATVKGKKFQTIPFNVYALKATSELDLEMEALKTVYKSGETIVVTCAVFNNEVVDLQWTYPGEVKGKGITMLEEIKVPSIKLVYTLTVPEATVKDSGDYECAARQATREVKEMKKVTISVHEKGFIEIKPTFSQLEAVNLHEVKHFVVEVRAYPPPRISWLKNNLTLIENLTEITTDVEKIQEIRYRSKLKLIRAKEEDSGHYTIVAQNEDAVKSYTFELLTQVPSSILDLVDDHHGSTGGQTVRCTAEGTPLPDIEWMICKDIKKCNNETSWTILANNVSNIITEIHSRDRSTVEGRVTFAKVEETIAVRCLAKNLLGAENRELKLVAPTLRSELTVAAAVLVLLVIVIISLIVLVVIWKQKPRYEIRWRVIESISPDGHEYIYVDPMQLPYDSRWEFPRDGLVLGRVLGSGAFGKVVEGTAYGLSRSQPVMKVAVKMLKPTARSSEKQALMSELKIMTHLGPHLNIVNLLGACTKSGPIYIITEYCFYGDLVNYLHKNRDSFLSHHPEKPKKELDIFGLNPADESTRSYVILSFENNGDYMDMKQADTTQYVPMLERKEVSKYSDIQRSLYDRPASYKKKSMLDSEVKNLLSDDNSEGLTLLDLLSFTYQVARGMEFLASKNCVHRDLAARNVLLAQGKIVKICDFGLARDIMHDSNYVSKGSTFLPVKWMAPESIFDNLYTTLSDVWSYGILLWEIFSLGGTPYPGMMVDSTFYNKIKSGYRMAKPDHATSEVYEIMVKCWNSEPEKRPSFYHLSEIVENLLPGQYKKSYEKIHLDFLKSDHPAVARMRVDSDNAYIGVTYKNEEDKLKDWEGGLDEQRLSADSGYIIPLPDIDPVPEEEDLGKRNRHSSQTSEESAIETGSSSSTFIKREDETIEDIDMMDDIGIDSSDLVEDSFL
Chain of Leucine-rich repeat serine/threonine-protein kinase 2 (Q5S007 whole entry): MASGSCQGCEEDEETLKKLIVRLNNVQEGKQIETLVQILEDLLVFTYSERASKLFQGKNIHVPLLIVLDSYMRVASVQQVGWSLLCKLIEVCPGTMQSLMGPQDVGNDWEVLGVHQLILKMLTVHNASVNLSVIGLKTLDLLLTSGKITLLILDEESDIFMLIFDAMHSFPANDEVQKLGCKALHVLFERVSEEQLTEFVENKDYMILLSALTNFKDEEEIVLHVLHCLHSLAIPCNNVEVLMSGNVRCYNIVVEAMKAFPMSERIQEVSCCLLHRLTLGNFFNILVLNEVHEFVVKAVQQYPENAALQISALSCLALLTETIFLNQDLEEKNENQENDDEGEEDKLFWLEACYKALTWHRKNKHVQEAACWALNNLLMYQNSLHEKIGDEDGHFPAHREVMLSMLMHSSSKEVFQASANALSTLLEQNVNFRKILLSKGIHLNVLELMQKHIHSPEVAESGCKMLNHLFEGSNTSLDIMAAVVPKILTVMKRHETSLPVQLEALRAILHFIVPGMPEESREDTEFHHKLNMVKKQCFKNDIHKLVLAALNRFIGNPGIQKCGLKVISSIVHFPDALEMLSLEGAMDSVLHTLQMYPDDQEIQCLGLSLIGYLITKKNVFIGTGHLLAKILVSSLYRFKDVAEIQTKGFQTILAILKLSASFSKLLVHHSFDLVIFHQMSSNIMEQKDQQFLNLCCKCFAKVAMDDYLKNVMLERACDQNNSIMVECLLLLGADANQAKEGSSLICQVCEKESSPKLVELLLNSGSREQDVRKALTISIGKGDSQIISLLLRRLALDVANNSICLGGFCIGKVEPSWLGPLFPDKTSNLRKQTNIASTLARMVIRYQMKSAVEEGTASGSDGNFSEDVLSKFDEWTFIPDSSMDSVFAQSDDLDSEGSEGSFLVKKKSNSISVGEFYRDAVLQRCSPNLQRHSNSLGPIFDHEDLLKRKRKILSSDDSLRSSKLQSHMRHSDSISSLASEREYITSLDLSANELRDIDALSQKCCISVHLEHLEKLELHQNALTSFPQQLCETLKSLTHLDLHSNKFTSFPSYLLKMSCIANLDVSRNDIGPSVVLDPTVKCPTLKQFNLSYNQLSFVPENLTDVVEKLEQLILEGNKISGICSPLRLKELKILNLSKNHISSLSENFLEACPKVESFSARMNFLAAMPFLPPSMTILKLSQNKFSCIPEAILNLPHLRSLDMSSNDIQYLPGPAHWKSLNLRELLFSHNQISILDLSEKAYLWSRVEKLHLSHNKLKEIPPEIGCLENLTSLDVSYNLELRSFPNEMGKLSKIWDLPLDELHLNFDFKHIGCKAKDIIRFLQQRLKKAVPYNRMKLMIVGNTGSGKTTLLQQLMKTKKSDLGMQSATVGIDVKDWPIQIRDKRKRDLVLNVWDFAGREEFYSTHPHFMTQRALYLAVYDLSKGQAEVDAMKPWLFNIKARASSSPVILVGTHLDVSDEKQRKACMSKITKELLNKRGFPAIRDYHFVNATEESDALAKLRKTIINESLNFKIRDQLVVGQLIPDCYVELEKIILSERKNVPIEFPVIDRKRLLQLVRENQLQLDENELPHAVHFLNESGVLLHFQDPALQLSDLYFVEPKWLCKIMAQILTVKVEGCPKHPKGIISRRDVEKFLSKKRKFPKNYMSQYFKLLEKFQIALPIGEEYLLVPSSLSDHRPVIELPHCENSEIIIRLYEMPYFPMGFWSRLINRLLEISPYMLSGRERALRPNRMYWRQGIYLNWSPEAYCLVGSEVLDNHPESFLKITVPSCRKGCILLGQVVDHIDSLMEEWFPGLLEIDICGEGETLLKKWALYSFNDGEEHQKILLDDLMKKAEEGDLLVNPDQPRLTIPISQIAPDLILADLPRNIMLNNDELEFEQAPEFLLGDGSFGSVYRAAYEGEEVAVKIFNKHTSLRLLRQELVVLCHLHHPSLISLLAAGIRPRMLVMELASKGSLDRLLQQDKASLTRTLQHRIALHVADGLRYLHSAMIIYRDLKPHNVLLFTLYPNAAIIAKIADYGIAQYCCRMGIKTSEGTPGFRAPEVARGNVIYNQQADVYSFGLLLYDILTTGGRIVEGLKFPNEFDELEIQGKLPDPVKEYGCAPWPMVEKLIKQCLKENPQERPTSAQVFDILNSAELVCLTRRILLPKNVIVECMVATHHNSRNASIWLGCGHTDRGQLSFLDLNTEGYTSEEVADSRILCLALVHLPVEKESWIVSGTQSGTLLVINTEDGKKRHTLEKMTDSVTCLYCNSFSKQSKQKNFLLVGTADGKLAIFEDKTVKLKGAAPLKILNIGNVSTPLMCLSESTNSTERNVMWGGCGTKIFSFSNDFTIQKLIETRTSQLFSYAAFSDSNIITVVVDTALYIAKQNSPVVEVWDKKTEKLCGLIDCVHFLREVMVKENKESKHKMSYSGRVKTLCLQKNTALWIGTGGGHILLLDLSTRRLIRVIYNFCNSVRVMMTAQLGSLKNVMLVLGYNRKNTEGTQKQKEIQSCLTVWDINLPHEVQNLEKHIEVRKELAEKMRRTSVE
Chain of Leucine-rich repeat serine/threonine-protein kinase 2 (Homo sapiens), Q5S007 [G2019S] (Q5S007 whole entry G2019S): as the sequence (Q5S007 whole entry) above, with G2019S counted along it

Nc1cnc(N2CCc3cc(S(=O)(=O)Nc4c(F)cc(Cl)cc4F)cc(N4CCCC4=O)c32)nc1 [TP-020n]
% of control [1]: 81% | % of control [2]: 97%

O=C(NOC[C@H](O)CO)c1ccc(F)c(F)c1Nc1ccc(I)cc1F
% of control [3]: 6.1% | % of control [4]: 100%

CC(=O)Nc1cccc(-n2c(=O)n(C3CC3)c(=O)c3c(Nc4ccc(I)cc4F)n(C)c(=O)c(C)c32)c1
% of control [5]: 111%

CNC(=O)Nc1ccc(-c2nc(N3CC4CCC(C3)O4)c3cnn(C4CCC5(CC4)OCCO5)c3n2)cc1
% of control [6]: 100%

CCn1c(-c2nc3cc(C(=O)N4CCCC(N)C4)ccc3n2C)cc2ccccc21 (centres undefined)
pXC50 [7]: < 4.3 M

CC[C@@H]1[C@H](F)C(=O)N[C@@H]1COc1nccc2cc(C(N)=O)c(OC)cc12 [ZIMLOVISERTIB]
% of inhibition [8]: -4.01%

CCC(=O)N1CCN(c2ccc(-n3c(=O)ccc4cnc5ccc(-c6cnc7ccccc7c6)cc5c43)cc2C(F)(F)F)CC1
% of control [9]: 85%
